Tests used:
[1] = tested on: NF-κB DNA binding activity; experiment: NF-κB DNA binding activity (EMSA) after γ-IR or etoposide, U2OS cells; assay type: cell-based, human
Experimental: FIG. 3: (A) U2OS cells were pre-treated with increasing concentrations of MW01 in duplicates in a 384 well plate. Then, cells were treated with etoposide, fixed and subjected to IF of p65. Spatial measurement of p65 cytosolic and nuclear localisation was used for calculation of p65 translocation rates. (B) U2OS cells were pre-treated with DMSO, MW01 and irradiated with γ-IR. After 90 min cells were lysed and subjected to SDS-PAGE/WB and EMSA. (C) Cells were pre-treated with different concentrations of MW01 as indicated, treated with γ-IR (C) or etoposide (D) and subjected to WB or EMSA, respectively. LDH in (C) represents the loading control.
Nuclear or whole cell lysates were incubated with a ^32P-labeled NF-κB DNA-[…]
For electrophoresis, a current of 26 mA was applied for 2 h. After drying the gel onto a Whatman paper, signals were visualised on an autoradiography film (GE Healthcare) after overnight incubation at −80° C. in a radiography cassette. All work using radioactive substances were done at a monitored work space suitable for radioactive work.

[2] = tested on: ATM cytoplasmic translocation; experiment: Cytoplasmic accumulation of ATM, fractionation experiment (NE/CE) with WB, HepG2 cells; assay type: cell-based, human; conditions: 5 μM
Experimental: FIG. 7: Cytoplasmic accumulation of ATM. (A) Fractionation experiment with separated nuclear extracts (NE) and cytoplasmic extracts (CE). PARP1 and LDH staining served as loading and fractionation controls. Cells were pre-treated with DMSO or MW01 (5 μM) prior to irradiation and cell harvesting at indicated times. NE and CE were subjected to SDS-PAGE/WB procedure. (B) U2OS cells were seeded on cover slips 2 days before treatment. The cells were pre-treated with solvent DMSO alone or with MW01 prior to irradiation, cell fixation and subsequent immunofluorescence staining.
For the preparation of nuclear and cytoplasmic fractions, cells were lysed with buffer A (supplemented with 1 mM DTT, 10 mM NaF, 20 mM β-glycerophosphate, 250 nM NaVO3, complete protease inhibitor cocktail (Roche) and 50 nM calyculin A. Lysates were adjusted to a final concentration of 0.2% NP-40, vortexed for 10 s and spun down. The supernatant, representing the cytoplasmic extract (CE), was transferred into a new 1.5 ml reaction tube. The pellet was washed with buffer A, was resuspended with buffer C and shaken for 20 min at 4° C. Following 10 min of centrifugation at 14,000 rpm, the supernatant, representing the nuclear extract (NE), was transferred into a new reaction cap.

[3] = tested on: IKKγ phosphorylation at S85; experiment: IKKγ S85 phosphorylation after irradiation, WB, HEK293 cells; assay type: cell-based; conditions: HEK293 (human)
Experimental: FIG. 11: (A) HEK293 cells were pre-incubated with DMSO, MW01 or ATM inhibitor KU55933 and irradiated. Lysates were subjected to SDS-PAGE/WB. The specific IKKγ S85 band (lower band) was identified by induction following irradiation and by sensitivity to ATMi and λ-phosphatase (λ-PP) treatment. The asterisk indicates a non-specific band that was neither inducible nor ATMi sensitive. (B) Experiment was done as shown in (A) using MEF cells. (C) HEK293 cells were pre-treated with DMSO or MW01, irradiated and lysed. Lysates were used to immunoprecipitate IKKγ using an IKKγ antibody.

[4] = molecular target: T1, nuclear IKKγ-PIASy-PARP1-ATM signalosome (Homo sapiens, UniProt P09874+Q13315+Q8N2W9+Q9Y6K9); experiment: Nuclear PARP1-signalosome formation, co-immunoprecipitation, HepG2 cells; assay type: cell-based; design: endogenous in cells
Experimental: (§1) FIG. 8: (A) HepG2 cells were pre-treated with DMSO or MW01 and irradiated. Nuclear cell extracts (NE) were used for PIASy immunoprecipitation (IP). Western blot membranes were incubated with indicated antibodies. (B) Experiment as shown in (A), but with IKKγ IP. (C) Experiment as shown in (B), but done in HEK293 cells. (D) Experiment done as shown in […], but repeated in MEF cells.
(§2) Following cell lysis the protein concentration of samples was determined. For input controls, 40 μg lysate were mixed with 6×SDS-buffer and denatured by heating to 95° C. for 4 min. Approximately 1500 μg protein lysate was used for pulldown and samples volumes were equalled with lysis buffer. Lysates were precleared with 30 μl sepharose A or sepharose G beads (depending on the antibody type used for pulldown) for 30 min, and centrifuged for 5 min at 1,500×g. The supernatant was transferred to a new reaction tube. Primary antibody (2-2.5 μg) was added to the cleared lysate for immunoprecipitation overnight while rotating at 4° C. The next day 30 μl sepharose beads per sample were used for immobilisation of antibodies. Following 4 washes with IP wash buffer precipitated proteins were eluted by mixing with 3×SDS-buffer and heating to 95° C. for 4 min.

[5] = molecular target: T1, nuclear IKKγ-PIASy-PARP1-ATM signalosome; experiment: Nuclear PARP1-signalosome formation, IKKγ co-immunoprecipitation, HEK293 cells; assay type: cell-based; design: endogenous in cells; host or cells: HEK293
Experimental: as §1, §2

T1 sequence (Q9Y6K9 whole entry): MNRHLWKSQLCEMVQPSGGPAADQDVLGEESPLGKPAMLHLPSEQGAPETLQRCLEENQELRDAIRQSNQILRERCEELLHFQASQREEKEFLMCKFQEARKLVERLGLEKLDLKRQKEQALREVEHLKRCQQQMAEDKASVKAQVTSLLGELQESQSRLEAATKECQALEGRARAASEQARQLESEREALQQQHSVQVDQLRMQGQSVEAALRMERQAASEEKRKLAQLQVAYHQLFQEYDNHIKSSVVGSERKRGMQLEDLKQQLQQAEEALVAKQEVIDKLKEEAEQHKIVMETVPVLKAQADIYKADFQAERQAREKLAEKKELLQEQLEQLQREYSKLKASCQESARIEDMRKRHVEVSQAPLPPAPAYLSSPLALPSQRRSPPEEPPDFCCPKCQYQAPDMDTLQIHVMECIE
T1 sequence (Q8N2W9 2-510 limits assumed): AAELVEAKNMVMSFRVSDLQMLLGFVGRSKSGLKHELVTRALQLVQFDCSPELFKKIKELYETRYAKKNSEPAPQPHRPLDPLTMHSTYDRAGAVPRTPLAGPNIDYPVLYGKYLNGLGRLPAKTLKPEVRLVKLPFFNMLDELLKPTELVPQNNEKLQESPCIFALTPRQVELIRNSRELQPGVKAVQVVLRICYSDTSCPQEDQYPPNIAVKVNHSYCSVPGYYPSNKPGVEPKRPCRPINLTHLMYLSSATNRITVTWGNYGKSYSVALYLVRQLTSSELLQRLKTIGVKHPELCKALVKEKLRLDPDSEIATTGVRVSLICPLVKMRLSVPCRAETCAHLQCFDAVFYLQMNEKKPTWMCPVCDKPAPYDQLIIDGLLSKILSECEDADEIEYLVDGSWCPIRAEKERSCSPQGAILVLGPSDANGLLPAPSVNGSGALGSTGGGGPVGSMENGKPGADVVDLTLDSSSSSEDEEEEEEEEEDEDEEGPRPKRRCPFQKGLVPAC
T1 sequence (P09874 2-1014 limits assumed): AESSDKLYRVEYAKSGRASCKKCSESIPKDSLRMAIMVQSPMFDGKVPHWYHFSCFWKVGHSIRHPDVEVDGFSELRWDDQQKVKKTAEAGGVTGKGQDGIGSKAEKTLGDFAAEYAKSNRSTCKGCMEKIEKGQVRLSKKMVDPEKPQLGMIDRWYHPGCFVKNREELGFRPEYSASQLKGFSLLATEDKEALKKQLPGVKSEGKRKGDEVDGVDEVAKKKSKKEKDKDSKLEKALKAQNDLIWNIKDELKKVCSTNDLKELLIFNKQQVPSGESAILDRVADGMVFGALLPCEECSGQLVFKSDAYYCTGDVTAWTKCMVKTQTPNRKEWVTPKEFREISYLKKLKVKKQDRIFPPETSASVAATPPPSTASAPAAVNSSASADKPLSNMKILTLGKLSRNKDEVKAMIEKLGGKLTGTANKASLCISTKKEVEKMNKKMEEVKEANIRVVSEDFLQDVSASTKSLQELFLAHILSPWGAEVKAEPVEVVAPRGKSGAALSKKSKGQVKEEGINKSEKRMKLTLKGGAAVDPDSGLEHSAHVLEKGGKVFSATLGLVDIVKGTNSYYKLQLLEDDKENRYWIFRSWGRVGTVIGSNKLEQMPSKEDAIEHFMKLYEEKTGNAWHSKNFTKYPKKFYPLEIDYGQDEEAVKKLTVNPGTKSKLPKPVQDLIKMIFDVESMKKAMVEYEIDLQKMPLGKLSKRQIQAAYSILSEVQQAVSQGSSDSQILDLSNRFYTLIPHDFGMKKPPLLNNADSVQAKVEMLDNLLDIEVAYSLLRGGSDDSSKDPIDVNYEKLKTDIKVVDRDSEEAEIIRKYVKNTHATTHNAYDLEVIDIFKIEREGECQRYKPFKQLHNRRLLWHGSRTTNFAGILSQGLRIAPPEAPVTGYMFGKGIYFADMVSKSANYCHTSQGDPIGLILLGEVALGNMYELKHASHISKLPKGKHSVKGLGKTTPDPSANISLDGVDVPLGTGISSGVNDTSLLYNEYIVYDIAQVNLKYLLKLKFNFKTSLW
T1 sequence (Q13315 2-3056 limits assumed): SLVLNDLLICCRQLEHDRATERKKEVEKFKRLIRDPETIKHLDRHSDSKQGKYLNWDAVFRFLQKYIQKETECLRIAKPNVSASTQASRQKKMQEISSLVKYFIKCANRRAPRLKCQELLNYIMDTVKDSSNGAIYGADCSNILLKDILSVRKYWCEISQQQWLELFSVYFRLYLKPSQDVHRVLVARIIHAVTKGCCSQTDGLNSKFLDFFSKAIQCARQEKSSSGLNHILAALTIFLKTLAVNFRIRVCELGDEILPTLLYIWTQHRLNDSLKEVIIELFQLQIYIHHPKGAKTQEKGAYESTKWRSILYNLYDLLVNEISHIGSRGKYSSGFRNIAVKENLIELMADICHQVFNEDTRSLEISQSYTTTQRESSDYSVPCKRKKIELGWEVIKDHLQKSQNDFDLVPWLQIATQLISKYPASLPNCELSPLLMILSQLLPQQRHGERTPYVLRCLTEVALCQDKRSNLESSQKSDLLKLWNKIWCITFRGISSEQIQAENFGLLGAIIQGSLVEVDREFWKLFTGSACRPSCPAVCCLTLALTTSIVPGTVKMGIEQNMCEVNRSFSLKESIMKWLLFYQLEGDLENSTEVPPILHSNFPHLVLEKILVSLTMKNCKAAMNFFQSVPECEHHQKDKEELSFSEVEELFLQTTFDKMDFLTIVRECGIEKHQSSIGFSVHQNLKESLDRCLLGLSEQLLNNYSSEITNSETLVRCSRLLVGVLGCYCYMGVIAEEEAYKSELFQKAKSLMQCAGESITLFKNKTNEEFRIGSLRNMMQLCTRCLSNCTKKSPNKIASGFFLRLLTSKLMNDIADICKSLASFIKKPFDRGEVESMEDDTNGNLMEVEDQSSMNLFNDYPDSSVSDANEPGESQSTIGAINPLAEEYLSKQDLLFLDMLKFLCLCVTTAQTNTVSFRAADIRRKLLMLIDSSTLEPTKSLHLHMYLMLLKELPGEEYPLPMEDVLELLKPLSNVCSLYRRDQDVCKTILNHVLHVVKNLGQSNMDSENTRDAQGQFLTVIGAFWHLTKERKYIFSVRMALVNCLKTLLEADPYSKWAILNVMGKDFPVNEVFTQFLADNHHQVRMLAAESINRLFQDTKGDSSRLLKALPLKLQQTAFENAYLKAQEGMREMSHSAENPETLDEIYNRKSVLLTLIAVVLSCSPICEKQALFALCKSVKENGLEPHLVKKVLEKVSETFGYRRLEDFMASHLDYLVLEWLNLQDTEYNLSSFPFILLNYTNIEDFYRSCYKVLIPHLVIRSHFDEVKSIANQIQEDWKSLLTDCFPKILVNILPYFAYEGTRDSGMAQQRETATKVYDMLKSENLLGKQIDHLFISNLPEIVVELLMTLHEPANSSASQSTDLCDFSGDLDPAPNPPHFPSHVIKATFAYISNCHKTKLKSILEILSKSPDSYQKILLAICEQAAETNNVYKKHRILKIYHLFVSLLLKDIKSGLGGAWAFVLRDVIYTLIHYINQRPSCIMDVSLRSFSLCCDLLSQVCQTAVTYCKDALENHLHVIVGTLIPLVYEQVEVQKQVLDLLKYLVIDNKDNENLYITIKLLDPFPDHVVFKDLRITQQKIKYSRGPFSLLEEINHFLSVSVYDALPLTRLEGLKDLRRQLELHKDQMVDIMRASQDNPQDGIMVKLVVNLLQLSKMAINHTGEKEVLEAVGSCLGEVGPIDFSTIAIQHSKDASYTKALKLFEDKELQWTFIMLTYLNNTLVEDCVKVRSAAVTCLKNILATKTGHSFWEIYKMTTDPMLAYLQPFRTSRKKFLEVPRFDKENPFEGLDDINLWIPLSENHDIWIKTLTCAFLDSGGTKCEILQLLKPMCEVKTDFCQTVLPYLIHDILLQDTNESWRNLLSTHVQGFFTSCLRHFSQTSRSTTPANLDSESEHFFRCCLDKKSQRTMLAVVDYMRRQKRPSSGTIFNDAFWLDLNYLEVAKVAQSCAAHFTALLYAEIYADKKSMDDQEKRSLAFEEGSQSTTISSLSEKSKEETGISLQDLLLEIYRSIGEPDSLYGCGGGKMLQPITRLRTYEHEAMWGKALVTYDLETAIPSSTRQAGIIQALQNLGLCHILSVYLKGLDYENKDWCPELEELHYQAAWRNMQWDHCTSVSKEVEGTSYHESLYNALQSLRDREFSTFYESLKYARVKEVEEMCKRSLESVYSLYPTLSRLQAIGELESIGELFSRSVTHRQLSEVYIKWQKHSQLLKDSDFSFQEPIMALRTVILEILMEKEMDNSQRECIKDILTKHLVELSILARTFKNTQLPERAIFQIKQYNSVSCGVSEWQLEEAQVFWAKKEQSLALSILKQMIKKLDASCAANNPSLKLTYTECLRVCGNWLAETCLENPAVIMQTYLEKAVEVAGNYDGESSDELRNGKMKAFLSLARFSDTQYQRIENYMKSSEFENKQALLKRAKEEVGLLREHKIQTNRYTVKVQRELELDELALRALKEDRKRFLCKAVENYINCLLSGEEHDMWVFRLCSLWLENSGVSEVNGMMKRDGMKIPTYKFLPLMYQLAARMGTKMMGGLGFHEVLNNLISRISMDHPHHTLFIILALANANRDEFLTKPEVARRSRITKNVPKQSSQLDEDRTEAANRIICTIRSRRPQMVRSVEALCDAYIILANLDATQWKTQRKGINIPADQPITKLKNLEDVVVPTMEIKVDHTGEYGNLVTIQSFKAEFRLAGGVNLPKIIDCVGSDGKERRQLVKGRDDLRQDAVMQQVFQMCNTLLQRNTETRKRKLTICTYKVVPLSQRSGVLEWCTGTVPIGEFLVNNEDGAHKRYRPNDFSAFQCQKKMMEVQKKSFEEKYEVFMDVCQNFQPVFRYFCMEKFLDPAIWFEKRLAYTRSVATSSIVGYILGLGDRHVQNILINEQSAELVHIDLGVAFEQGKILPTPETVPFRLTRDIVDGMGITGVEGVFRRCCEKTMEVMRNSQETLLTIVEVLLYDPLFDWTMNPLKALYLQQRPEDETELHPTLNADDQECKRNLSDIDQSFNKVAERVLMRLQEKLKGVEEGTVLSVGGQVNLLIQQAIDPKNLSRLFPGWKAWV

With `COc1ccc2c(c1OC)c(=O)n1c3ccc(O)cc3c3ccnc2c31` [MW01, 12-hydroxy-6,7-dimethoxy-8H-benzo[c]indolo[3,2,1-ij][1,5]naphthyridin-8-one] the “etoposide-induced NF-κB DNA binding activity” value ([1]; etoposide) was “inhibited by MW01 pre-treatment in a concentration dependent manner”, the “γ-IR-induced NF-κB DNA binding activity” value ([1]; γ-IR, 90 min, U2OS) was “inhibited the γ-IR-induced NF-κB DNA binding activity” and the “accumulation of total ATM in the cytoplasm” value ([2]; 45 min after irradiation) was “inhibited the accumulation of ATM in the cytoplasm”. For the same compound, the “detection of phosphorylated ATM in nuclear extracts” value ([2]; 45 min and 90 min after irradiation) was “did not affect”, the “detection of activated ATM species in the cytoplasmic extracts” value ([2]; after irradiation) was “abolished” and the “phosphorylation of IKKγ at S85” value [3] was “abolished”. For the same compound, the “co-immunoprecipitation of PARP1 with IKKγ” value ([4]; HepG2, IKKγ IP) was “not co-immunoprecipitated”, the “γ-irradiation-induced Co-IP of phosphorylated ATM-51981 species with PIASy” value ([4]; HepG2 nuclear extracts, PIASy IP) was “lost after pre-treatment with MW01” and the “Co-IP of PARP-1 with IKKγ” value ([5]; HEK293, data not shown) was “abrogated Co-IP of PARP-1 with IKKγ”. For the same compound, the “IKKγ-PIASy-interaction (PIASy co-immunoprecipitation with IKKγ)” value ([5]; HEK293, γ-irradiation) was “the interaction was abolished”.
